Like-named read-outs stand apart in the source and are kept apart here.
Target: T1, CYP4A (Homo sapiens, UniProt Q02928)
T1 construct: purchased; host or cells: bacterial membranes ('bactosome')
T1 sequence (Q02928 5-519): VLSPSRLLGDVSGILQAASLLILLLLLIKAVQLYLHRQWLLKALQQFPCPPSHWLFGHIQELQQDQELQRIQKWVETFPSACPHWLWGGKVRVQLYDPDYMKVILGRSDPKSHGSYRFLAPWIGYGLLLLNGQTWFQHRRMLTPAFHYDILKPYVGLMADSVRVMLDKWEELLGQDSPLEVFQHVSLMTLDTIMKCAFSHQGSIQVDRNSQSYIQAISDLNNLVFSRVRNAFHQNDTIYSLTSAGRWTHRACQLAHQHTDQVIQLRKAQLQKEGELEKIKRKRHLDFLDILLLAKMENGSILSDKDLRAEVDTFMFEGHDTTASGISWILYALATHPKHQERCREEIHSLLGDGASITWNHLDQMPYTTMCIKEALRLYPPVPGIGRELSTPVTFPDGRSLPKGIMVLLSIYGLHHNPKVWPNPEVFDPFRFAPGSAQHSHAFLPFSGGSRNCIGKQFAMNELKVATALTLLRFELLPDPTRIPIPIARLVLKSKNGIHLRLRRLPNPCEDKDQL
Test: CYP4A enzyme assay (luminescence, Luciferin-ME)
Assay type: biochemical
Settings: Compound concentration 5 μM
Procedure, shortened: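 Compounds (5 μM) were preincubated 15 min at room temperature with CYP4A bactosomes in 100 mM KPO4, 0.1% BSA, 1 mM DTT. Reaction ran 30 min at room temperature after adding 5 mM Luciferin-ME and NADPH regeneration system. Luminescence after 15 min with detection reagent; inhibition judged by comparing well signals.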

[1] = 70%-90%, read-out: % Inhibition 70%-90%
[2] = Greater than 90%, read-out: % Inhibition Greater than 90%
[3] = 50%-70%, read-out: % Inhibition 50%-70%
[4] = Less than 50%, read-out: % Inhibition Less than 50%

inhibition at 5 µM [1] [%]	inhibition at 5 µM [3] [%]	Structure (SMILES)	also measured
70 to 90		Nc1cccc(S(=O)(=O)N2CC(C(=O)N3CCN(c4ccnc5cc(F)ccc45)CC3)C2)c1 [Example 72, (1-((3-aminophenyl)sulfonyl)azetidin-3-yl)(4-(7-fluoroquinolin-4-yl)piperazin-1-yl)methanone]	
70 to 90		CC(=O)Nc1ccc(S(=O)(=O)N2CCCC(C(=O)N3CCN(c4ncnc5ccccc45)CC3)C2)cc1 (centres unmarked) [Example 74, N-(4-((3-(4-(quinazolin-4-yl)piperazine-1-carbonyl)piperidin-1-yl)sulfonyl)phenyl)acetamide]	
70 to 90		O=C(C1CCCN(S(=O)(=O)c2ccc(F)cc2)C1)N1CCN(c2ncnc3ccccc23)CC1 (centres unmarked) [Example 76, (1-((4-fluorophenyl)sulfonyl)piperidin-3-yl)(4-(quinazolin-4-yl)piperazin-1-yl)methanone]	
70 to 90		O=C(C1CCCN(S(=O)(=O)c2ccc(O)cc2)C1)N1CCN(c2ncnc3ccccc23)CC1 (centres unmarked) [Example 78, (1-((4-hydroxyphenyl)sulfonyl)piperidin-3-yl)(4-(quinazolin-4-yl)piperazin-1-yl)methanone]	
	50 to 70	CC(=O)Nc1ccc(S(=O)(=O)N2CCCC(C(=O)N3CCN(c4nc(C)nc5ccccc45)CC3)C2)cc1 (centres unmarked) [Example 79, N-(4-(3-(1-(2-methylquinazolin-4-yl)piperazine-4-carbonyl)piperidin-1-ylsulfonyl)phenyl)acetamide]	
	50 to 70	O=C(C1CCCN(C(=O)C2CCCCC2)C1)N1CCN(c2ccnc3cc(Cl)ccc23)CC1 (centres unmarked) [Example 86, (4-(7-chloroquinolin-4-yl)piperazin-1-yl)(1-(cyclohexylcarbonyl)piperidin-3-yl)methanone]	
70 to 90		O=C(c1ccncc1)N1CCCC(C(=O)N2CCN(c3ccnc4cc(Cl)ccc34)CC2)C1 (centres unmarked) [Example 87, (4-(7-chloroquinolin-4-yl)piperazin-1-yl)(1-(pyridine-4-ylcarbonyl)piperidin-3-yl)methanone]	
70 to 90		COc1ccc2c(N3CCN(C(=O)C4CCCN(C(=O)c5ccc(NC(C)=O)cc5)C4)CC3)ccnc2c1 (centres unmarked) [Example 89, N-(4-(3-(4-(7-methoxyquinolin-4-yl)piperazine-1-carbonyl)piperidine-1-carbonyl)phenyl)acetamide]	
	50 to 70	COc1ccc2c(N3CCN(C(=O)C4CCCN(C(=O)c5ccccc5)C4)CC3)ccnc2c1 (centres unmarked) [Example 91, (1-benzoylpiperidin-3-yl)(4-(7-methoxyquinolin-4-yl)piperazin-1-yl)methanone]	
	50 to 70	CC(=O)Nc1ccc(C(=O)N2CCCC(C(=O)N3CCN(c4cc(C)nc5ccccc45)CC3)C2)cc1 (centres unmarked) [Example 100, N-(4-(3-(1-(2-methylquinolin-4-yl)piperazine-4-carbonyl)piperidine-1-carbonyl)phenyl)acetamide]	

The remaining lines, values behind:

Structure (SMILES)	inhibition at 5 µM [1] [%]	inhibition at 5 µM [3] [%]	also measured
CC(=O)Nc1cccc(S(=O)(=O)N2CC(C(=O)N3CCN(c4ccnc5cc(F)ccc45)CC3)C2)c1 [Example 73, N-(3-((3-(4-(7-fluoroquinolin-4-yl)piperazine-1-carbonyl)azetidin-1-yl)sulfonyl)phenyl)acetamide]			inhibition at 5 µM [2]: > 90%
Cc1ccc(S(=O)(=O)N2CCCC(C(=O)N3CCN(c4ncnc5ccccc45)CC3)C2)cc1 (centres unmarked) [Example 75, (4-(quinazolin-4-yl)piperazin-1-yl)(1-tosylpiperidin-3-yl)methanone]		50 to 70	
CN(C)c1ccc(S(=O)(=O)N2CCCC(C(=O)N3CCN(c4ncnc5ccccc45)CC3)C2)cc1 (centres unmarked) [Example 77]	70 to 90		
Cc1ccc(S(=O)(=O)N2CCCC(C(=O)N3CCN(c4nc(C)nc5ccccc45)CC3)C2)cc1 (centres unmarked) [Example 80, (4-(2-methylquinazolin-4-yl)piperazin-1-yl)(1-tosylpiperidin-3-yl)methanone]			inhibition at 5 µM [4]: < 50%
Cc1nc(N2CCN(C(=O)C3CCCN(S(=O)(=O)c4ccc(F)cc4)C3)CC2)c2ccccc2n1 (centres unmarked) [Example 81, (1-(4-fluorophenylsulfonyl)piperidin-3-yl)(4-(2-methylquinazolin-4-yl)piperazin-1-yl)methanone]		50 to 70	
Cc1nc(N2CCN(C(=O)C3CCCN(S(=O)(=O)c4ccc(N(C)C)cc4)C3)CC2)c2ccccc2n1 (centres unmarked) [Example 82, (1-(4-(dimethylamino)phenylsulfonyl)piperidin-3-yl)(4-(2-methylquinazolin-4-yl)piperazin-1-yl)methanone]		50 to 70	
CC(=O)Nc1ccc(C(=O)N2CCCC(C(=O)N3CCN(c4ccnc5cc(Cl)ccc45)CC3)C2)cc1 (centres unmarked) [Example 83, N-(4-(3-(1-(7-chloroquinolin-4-yl)piperazine-4-carbonyl)piperidine-1-carbonyl)phenyl)acetamide]			inhibition at 5 µM [2]: > 90%
O=C(c1ccc(F)cc1)N1CCCC(C(=O)N2CCN(c3ccnc4cc(Cl)ccc34)CC2)C1 (centres unmarked) [Example 84, (4-(7-chloroquinolin-4-yl)piperazin-1-yl)(1-(4-fluorophenylcarbonyl)piperidin-3-yl)methanone]	70 to 90		
O=C(c1ccccc1)N1CCCC(C(=O)N2CCN(c3ccnc4cc(Cl)ccc34)CC2)C1 (centres unmarked) [Example 85, (4-(7-chloroquinolin-4-yl)piperazin-1-yl)(1-(phenylcarbonyl)piperidin-3-yl)methanone]	70 to 90		
COc1ccc(C(=O)N2CCCC(C(=O)N3CCN(c4ccnc5cc(Cl)ccc45)CC3)C2)cc1 (centres unmarked) [Example 88, (4-(7-chloroquinolin-4-yl)piperazin-1-yl)(1-(4-methoxyphenylcarbonyl)piperidin-3-yl)methanone]		50 to 70	
COc1ccc2c(N3CCN(C(=O)C4CCCN(C(=O)c5ccc(F)cc5)C4)CC3)ccnc2c1 (centres unmarked) [Example 90, (1-(4-fluorobenzoyl)piperidin-3-yl)(4-(7-methoxyquinolin-4-yl)piperazin-1-yl)methanone]	70 to 90		
COc1ccc2c(N3CCN(C(=O)C4CCCN(C(=O)C5CCCCC5)C4)CC3)ccnc2c1 (centres unmarked) [Example 92, (4-(7-methoxyquinolin-4-yl)piperazin-1-yl)(1-(cyclohexylcarbonyl)piperidin-3-yl)methanone]		50 to 70	
COc1ccc2c(N3CCN(C(=O)C4CCCN(C(=O)c5ccncc5)C4)CC3)ccnc2c1 (centres unmarked) [Example 93, (4-(7-methoxyquinolin-4-yl)piperazin-1-yl)(1-(pyridine-4-ylcarbonyl)piperidin-3-yl)methanone]	70 to 90		
COc1ccc(C(=O)N2CCCC(C(=O)N3CCN(c4ccnc5cc(OC)ccc45)CC3)C2)cc1 (centres unmarked) [Example 94, (4-(7-methoxyquinolin-4-yl)piperazin-1-yl)(1-(4-methoxyphenylcarbonyl)piperidin-3-yl)methanone]		50 to 70	
CC(=O)Nc1ccc(C(=O)N2CCCC(C(=O)N3CCN(c4cc(C(F)(F)F)nc5ccccc45)CC3)C2)cc1 (centres unmarked) [Example 95, N-(4-(3-(1-(2-(trifluoromethyl)quinolin-4-yl)piperazine-4-carbonyl)piperidine-1-carbonyl)phenyl)acetamide]		50 to 70	
O=C(c1ccc(F)cc1)N1CCCC(C(=O)N2CCN(c3cc(C(F)(F)F)nc4ccccc34)CC2)C1 (centres unmarked) [Example 96, (1-(4-fluorobenzoyl)piperidin-3-yl)(4-(2-(trifluoromethyl)quinolin-4-yl)piperazin-1-yl)methanone]		50 to 70	
O=C(C1CCCN(C(=O)C2CCCCC2)C1)N1CCN(c2cc(C(F)(F)F)nc3ccccc23)CC1 (centres unmarked) [Example 97, (1-(cyclohexylcarbonyl)piperidin-3-yl)(4-(2-(trifluoromethyl)quinolin-4-yl)piperazin-1-yl)methanone]			inhibition at 5 µM [4]: < 50%
O=C(c1ccncc1)N1CCCC(C(=O)N2CCN(c3cc(C(F)(F)F)nc4ccccc34)CC2)C1 (centres unmarked) [Example 98, (1-isonicotinoylpiperidin-3-yl)(4-(2-(trifluoromethyl)quinolin-4-yl)piperazin-1-yl)methanone]		50 to 70	
COc1ccc(C(=O)N2CCCC(C(=O)N3CCN(c4cc(C(F)(F)F)nc5ccccc45)CC3)C2)cc1 (centres unmarked) [Example 99, (1-(4-methoxybenzoyl)piperidin-3-yl)(4-(2-(trifluoromethyl)quinolin-4-yl)piperazin-1-yl)methanone]		50 to 70	
Cc1cc(N2CCN(C(=O)C3CCCN(C(=O)c4ccc(F)cc4)C3)CC2)c2ccccc2n1 (centres unmarked) [Example 101, (1-(4-fluorobenzoyl)piperidin-3-yl)(4-(2-methylquinolin-4-yl)piperazin-1-yl)methanone]		50 to 70	
Cc1cc(N2CCN(C(=O)C3CCCN(C(=O)c4ccccc4)C3)CC2)c2ccccc2n1 (centres unmarked) [Example 102, (1-benzoylpiperidin-3-yl)(4-(2-methylquinolin-4-yl)piperazin-1-yl)methanone]		50 to 70	
Cc1cc(N2CCN(C(=O)C3CCCN(C(=O)C4CCCCC4)C3)CC2)c2ccccc2n1 (centres unmarked) [Example 103, (1-(cyclohexylcarbonyl)piperidin-3-yl)(4-(2-methylquinolin-4-yl)piperazin-1-yl)methanone]			inhibition at 5 µM [4]: < 50%

Reference: patent publication US12612384B2, “Heterocyclic CYP4A inhibitor compounds and compositions thereof” (MBD CO., LTD., priority 2021, dated 2026)
